Reference: patent EP0073390A1, “Combination of active substances from kitasamycine and quinoxaline-di-N oxides” (BAYER AG, priority 1981, dated 1983)

Assays:
[1] = tested on: Ferkel; assay: Feeding trial with piglets, Beispiel 1 (daily weight gain and feed conversion); assay type: in vivo
Description: a) Tier-Charakteristik und Futter
• a1) Ferkel • a2) Anzahl 30 • a3) Zucht große weiße Landrasse Kreuzungszucht • a4) Geschlecht männlich • a5) Alter etwa 8 bis 14 Wochen • a6) Gewicht 17,5 bis 45 kg • a7) Zustand gut • a8) Futter [formula]
Ingredientien: • Weizen, Gerste, Hirse, Kleie, Fleischmehl, Sojabohnenmehl, Baumwollsamenmehl, Sonnenblumensamenmehl, Lysin, Salz, Kalkstein, 2RO, MnO, Kupfer- und Eisensulfat, Kaliumjodid, Vitamine A, D, E, K, B/2, Niazin, Pantothensäure.
Die Behandlung der Tiere wurde in 5 Behandlungsgruppen durchgeführt. Das Anfangsgewicht für jede Gruppe war gleich.
Die Ferkel wurden […] gewogen. Es wurde die tägliche Gewichtszunahme und Futterverwertung bestimmt. Wöchentliches Wiegen und individuelle Futteraufnahme wurden notiert.

[2] = tested on: Ferkel; assay: Feeding trial with piglets, Beispiel 2 (weight gain, feed conversion, back fat thickness by ultrasound); assay type: in vivo
Description: a) Tiercharakteristik und Futter
Die Ferkel wurden zu Versuchbeginn und in wöchentlichen oder vierzehntägigen Abständen bis zum Versuchsende gewogen.
Futtermenge und Mortalität wurden täglich notiert.
Die Rückenfettstärke wurde per Ultraschall am Versuchsende gemessen und auf 75 kg Lebendgewicht korrigiert.

SMILES: Cc1c(C(=O)NCCO)[n+]([O-])c2ccccc2[n+]1[O-] [d1)]
- Durchschnittliche tägliche Gewichtszunahme ([1]; Beispiel 1, Ferkel, male, about 8 to 14 weeks, 17,5 bis 45 kg, Konzentration (ppm): d1) 50, d2) 50, d3) 25:25, d4) 12,5:12,5, Kontrolle 537): 593 g/Tag
- Durchschnittliches Futterverwertungsverhältnis ([1]; Beispiel 1; Ferkel; groups e1)-e4) correspond to d1)-d4); concentration column printed empty; e5) (presumably control) 2,72): 2,52 g/g
- Futterverwertung ([2]; 40 kg bis 75 kg): 3,10 g/g
- Gewichtszunahme ([2]; 40 kg bis Ende): 641 g/Tag
- Futterverwertung ([2]; Beginn bis 40 kg): 2,30 g/g
- Gewichtszunahme ([2]; Beginn bis 40 kg): 499 g/Tag
- Futterverwertung ([2]; Beginn bis Ende): 2,74 g/g
- Gewichtszunahme ([2]; Beginn bis Ende): 573 g/Tag
